Patent publication US20240376120A1, “CAMPTOTHECIN COMPOUND, PREPARATION METHOD THEREFOR AND USE THEREOF” (priority 2021, published 2024)
Read-outs that look alike come from different tables or passages of the source.

How the values were obtained:
Type in all cases: cell-based
Conditions in all cases: Homo sapiens, read-out: Proliferation inhibition IC50
[1] = system: MDA-MB-435s cells (human melanoma cells); test: MDA-MB-435s cell proliferation inhibitory assay (CellTiter-Glo)
Method: (§1) • 1). […] Resuspend an appropriate amount of cell suspension to 3000 cells/100 μL according to the count, mixed well and then put the corresponding number of cells into a 96-well plate by pipette. • 3). Each hole of the edge was sealed with 100 μL DPBS and put into an incubator for culture. • 4). Day 1 drug addition: Prepare the storage solution of the compound to be tested 1 hour in advance. 24 h after plating, the culture medium was gradiently diluted to a concentration twice the final concentration of each group. Take out the plated cells from the incubator and add 100 μL of the corresponding 2-fold concentration medium to each well by pipette. • 5). Day 1 detected: Take out an appropriate amount of CTG 1 h in advance and the plate was allowed to equilibrate at room temperature for 30 min. 100 μL of CTG was added to each well and shaken for 5 mins, and then standed in the dark for 5 mins, the luminescence value was detected by ELISA. • 6). Day 4 detection: Take an appropriate amount of CTG 1 h in advance and rewarm it at room temperature in the dark. At the same time, take out the plate to be tested from the incubator and leave it to equilibrate at room temperature for 30 minutes; 72 h after adding the drug, 100 μL of culture medium was sucked out with pipette carefully from each cell well, and 100 μL of CTG was added. The mixture was shaken for 5 min, and after equilibration in the dark for 5 min, the luminescence value was detected with ELISA. • 7). Analyze data and write detailed experimental records.
Collect data and convert it into survival rate: Inhibition rate (%)=(100−(OD value of compound−OD value on the first day)/(OD value of control well-OD value on the first day))×100%
(§2) Input the compound into graphpad prism to obtain the corresponding IC50 value.

[2] = system: MCF-7 cells (human breast cancer cells); test: MCF-7 cell proliferation inhibitory assay (CellTiter-Glo)
Method: • 1). […] Resuspend an appropriate amount of cell suspension to 4000 cells/100 μL according to the count, mixed well and then put the corresponding number of cells into a 96-well plate by pipette. • 3). Each hole of the edge was sealed with 100 μL DPBS and put into an incubator for culture. • 4). Day 1 drug addition: Prepare the storage solution of the compound to be tested 1 hour in advance. 24 h after plating, the culture medium was gradiently diluted to a concentration twice the final concentration of each group. Take out the plated cells from the incubator and add 100 μL of the corresponding 2-fold concentration medium to each well by pipette.
Day 1 detected: Take out the plate to be tested and an appropriate amount of CTG in advance and rewarm it at room temperature in the dark. 50 μL of CTG was added to each well at 24 h. Shake with the oscillator for 5 minutes, and after balancing in the dark for 5 minutes, detect the luminescence value with a microplate reader; The mixture was shaken for 5 min, and after equilibration in the dark for 5 min, the luminescence value was detected with ELISA. • 6). Day 4 detection: Take an appropriate amount of CTG 1 h in advance and rewarm it at room temperature in the dark. At the same time, take out the plate to be tested from the incubator and leave it to equilibrate at room temperature for 30 minutes; 72 h after adding the drug, 100 μL of culture medium was sucked out with pipette carefully from each cell well, and 50 μL of CTG was added. The mixture was shaken for 5 min, and after equilibration in the dark for 5 min, the luminescence value was detected with ELISA analyzer. • 7). Data analysis and processed.
Collect data and convert it into survival rate: Inhibition rate (%)=(100−(OD value of compound-OD value on the first day)/(OD value of control well-OD value on the first day))×100%
as §2

[3] = system: MDA-MB-231 cells (human breast cancer cells); test: MDA-MB-231 cell proliferation inhibitory assay (CellTiter-Glo)
Method: as §1, §2

[4] = MDA-MB-435s cells, 72 h after adding the drug, Table 3
[5] = MCF7, MCF-7 cells, 72 h after adding the drug, Table 1
[6] = MDA-MB-231 cells, 72 h after adding the drug, Table 2

Row | Structure (SMILES) | IC50 ([1]; MDA-MB-435S, 72 h) | IC50 ([2]; MCF7, 72 h) | IC50 ([3]; MDA-MB-231, 72 h) | IC50 [1, 4] | IC50 [2, 5] | IC50 [3, 6]
1 | CC[C@@]1(O)C(=O)OCc2c1cc1n(c2=O)Cc2c-1nc1cc3c(cc1c2[C@H](C)N)OCO3 [Example 35a] | 3.33 nM | 10.3 nM | 20.6 nM | – | – | –
2 | CC[C@@]1(O)C(=O)OCc2c1cc1n(c2=O)Cc2c-1nc1cc3c(cc1c2[C@@H](C)N)OCO3 [Example 35b] | 1.15 nM | 6.2 nM | 7.1 nM | – | – | –
3 | CC[C@@]1(O)C(=O)OCc2c1cc1n(c2=O)Cc2c-1nc1cc3c(cc1c2[C@H](C)N)OCCO3 [Example 36a] | 6.33 nM | 15.2 nM | 26.3 nM | – | – | –
4 | CC[C@@]1(O)C(=O)OCc2c1cc1n(c2=O)Cc2c-1nc1cc3c(cc1c2[C@@H](C)N)OCCO3 [Example 36b] | 3.15 nM | 8.3 nM | 15.4 nM | – | – | –
5 | CC[C@@]1(O)C(=O)OCc2c1cc1n(c2=O)Cc2c-1nc1cc(F)c(C)cc1c2C1CNC1 [Example 37] | 2.33 nM | 5.1 nM | 90.8 nM | – | – | –
6 | CC[C@@]1(O)C(=O)OCc2c1cc1n(c2=O)Cc2c-1nc1cc(F)c(C)cc1c2[C@@H]1CCN1 [Example 38a] | 1.12 nM | 5.6 nM | 16.6 nM | – | – | –
7 | CC[C@@]1(O)C(=O)OCc2c1cc1n(c2=O)Cc2c-1nc1cc(F)c(C)cc1c2[C@H]1CCN1 [Example 38b] | 0.65 nM | 2 nM | 6.2 nM | – | – | –
8 | CC[C@@]1(O)C(=O)OCc2c1cc1n(c2=O)Cc2c-1nc1cc(F)c(C)cc1c2[C@@H](N)CO [Example 39a] | 2.12 nM | 9.8 nM | 25.9 nM | – | – | –
9 | CC[C@@]1(O)C(=O)OCc2c1cc1n(c2=O)Cc2c-1nc1cc(F)c(C)cc1c2[C@H](N)CO [Example 39b] | 1.65 nM | 4.6 nM | 9.1 nM | – | – | –
10 | CC[C@@]1(O)C(=O)OCc2c1cc1n(c2=O)Cc2c-1nc1cc(F)c(C)cc1c2[C@@H](N)C(F)(F)F [Example 40a] | 4.12 nM | 6.6 nM | 50 nM | – | – | –
11 | CC[C@@]1(O)C(=O)OCc2c1cc1n(c2=O)Cc2c-1nc1cc(F)c(C)cc1c2[C@H](N)C(F)(F)F [Example 40b] | 2.65 nM | 3.5 nM | 25.7 nM | – | – | –
12 | CC[C@@]1(O)C(=O)OCc2c1cc1n(c2=O)Cc2c-1nc1cc(F)c(C)cc1c2[C@H](C)N1CCNCC1 [Example 41a] | 5.12 nM | 28.6 nM | 100 nM | – | – | –
13 | CC[C@@]1(O)C(=O)OCc2c1cc1n(c2=O)Cc2c-1nc1cc(F)c(C)cc1c2[C@@H](C)N1CCNCC1 [Example 41b] | 3.86 nM | 19.6 nM | 30.5 nM | – | – | –
14 | CC[C@@]1(O)C(=O)OCc2c1cc1n(c2=O)Cc2c-1nc1cc(F)c(C)cc1c2[C@H](C)N1CCN(C)CC1 [Example 42a] | 3.21 nM | 14.6 nM | 125 nM | – | – | –
15 | CC[C@@]1(O)C(=O)OCc2c1cc1n(c2=O)Cc2c-1nc1cc(F)c(C)cc1c2[C@@H](C)N1CCN(C)CC1 [Example 42b] | 2.56 nM | 6.6 nM | 75.6 nM | – | – | –
16 | [2H]C([2H])([2H])[C@H](N)c1c2c(nc3cc(F)c(C)cc13)-c1cc3c(c(=O)n1C2)COC(=O)[C@]3(O)CC [Example 43a] | – | – | – | 3.31 nM | 5.1 nM | 16.8 nM
17 | [2H]C([2H])([2H])[C@@H](N)c1c2c(nc3cc(F)c(C)cc13)-c1cc3c(c(=O)n1C2)COC(=O)[C@]3(O)CC [Example 43b] | – | – | – | 0.65 nM | 2.7 nM | 8 nM
